Data taken from ChEMBL document CHEMBL1201862, “PubChem BioAssay data set” (2004).
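Test compounds were applied to cells in 96-well plates for 48 hours at 5 doses. GI50: concentration for 50% inhibition of growth.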 Activity calls are given as the source filed them. No stated cut-off is given here; in the data, active = GI50 up to about 1.1 µM and inactive = higher.

Columns and labels:
Assay in all cases: NCI anticancer screen, dose series, 48 h
[1] = system: UACC-62
[2] = system: NCI-H522
[3] = system: MDA-N
[4] = system: ACHN
[5] = system: CAKI-1
[6] = system: SF-295
[7] = system: RPMI-8226
[8] = system: MDA-MB-435
[9] = system: COLO 205
[10] = system: T47D
[11] = system: OVCAR-3
[12] = system: HT-29
[13] = system: SW-620
[14] = system: EKVX
[15] = system: SF-268
[16] = system: BT-549
[17] = system: PC-3
[18] = system: HCC 2998
[19] = system: SNB-19
[20] = system: A549
[21] = system: MOLT-4
[22] = system: SN12C
[23] = system: SNB-75
[24] = system: RXF 393
[25] = system: HCT-116
[26] = system: UO-31
[27] = system: Malme-3M
[28] = system: MDA-MB-231
[29] = system: 786-0
[30] = system: SK-MEL-5
[31] = system: SK-OV-3
[32] = system: OVCAR-8
[33] = system: U-251
[34] = system: OVCAR-4
[35] = system: DU-145
[36] = system: NCI/ADR-RES
[37] = system: NCI-H23
[38] = system: IGROV-1
[39] = system: HOP-92
[40] = system: SR
[41] = system: SK-MEL-28
[42] = system: M14
[43] = system: K562
[44] = system: OVCAR-5
[45] = system: TK-10
[46] = system: KM12
[47] = system: HOP-62
[48] = system: MCF7
[49] = system: UACC-257
[50] = system: NCI-H226
[51] = system: HCT-15
[52] = system: CCRF-CEM
[53] = system: NCI-H460
[54] = system: HL-60
[55] = system: SF-539
[56] = system: SK-MEL-2
[57] = system: LOX IMVI
[58] = system: A498
[59] = system: Hs-578T

For CCOc1cc(CC[N+](C)(C)C)c2c(ccc3ccc(OC)c(OC)c32)c1OC, the GI50 [1] was > 100 µM (inactive), the GI50 [2] was > 100 µM (inactive) and the GI50 [3] was > 100 µM (inactive). The GI50 [4] was > 100 µM (inactive), the GI50 [5] was > 100 µM (inactive) and the GI50 [6] was > 100 µM (inactive). The GI50 [7] was 16.8 µM (inactive), the GI50 [8] was > 100 µM (inactive) and the GI50 [9] was > 100 µM (inactive). The GI50 [10] was > 100 µM (inactive), the GI50 [11] was 53.3 µM (inactive) and the GI50 [12] was > 100 µM (inactive). The GI50 [13] was > 100 µM (inactive), the GI50 [14] was > 100 µM (inactive) and the GI50 [15] was > 100 µM (inactive). For the same compound, the GI50 [16] was 19.4 µM (inactive), the GI50 [17] was > 100 µM (inactive) and the GI50 [18] was > 100 µM (inactive). The GI50 [19] was > 100 µM (inactive), the GI50 [20] was > 100 µM (inactive) and the GI50 [21] was > 10 µM (inactive). The GI50 [22] was > 100 µM (inactive), the GI50 [23] was > 100 µM (inactive) and the GI50 [24] was > 10 µM (inactive). For the same compound, the GI50 [25] was > 100 µM (inactive), the GI50 [26] was > 100 µM (inactive) and the GI50 [27] was > 100 µM (inactive). The GI50 [28] was > 100 µM (inactive), the GI50 [29] was > 100 µM (inactive) and the GI50 [30] was 63 µM (inactive). The GI50 [31] was > 100 µM (inactive), the GI50 [32] was > 100 µM (inactive) and the GI50 [33] was > 100 µM (inactive). For the same compound, the GI50 [34] was > 10 µM (inactive), the GI50 [35] was > 100 µM (inactive) and the GI50 [36] was > 100 µM (inactive). The GI50 [37] was > 10 µM (inactive), the GI50 [38] was > 100 µM (inactive) and the GI50 [39] was > 100 µM (inactive). For the same compound, the GI50 [40] was > 100 µM (inactive), the GI50 [41] was > 100 µM (inactive) and the GI50 [42] was > 100 µM (inactive).

With COC(=N)CCCl the GI50 [1] was > 100 µM (inactive), the GI50 [2] was 99.1 µM (inactive) and the GI50 [3] was > 100 µM (inactive). For the same compound, the GI50 [4] was > 100 µM (inactive), the GI50 [43] was > 100 µM (inactive) and the GI50 [5] was > 100 µM (inactive). The GI50 [6] was > 100 µM (inactive), the GI50 [7] was > 100 µM (inactive) and the GI50 [9] was > 100 µM (inactive). The GI50 [44] was > 100 µM (inactive), the GI50 [11] was > 100 µM (inactive) and the GI50 [12] was > 100 µM (inactive). For the same compound, the GI50 [13] was > 100 µM (inactive), the GI50 [14] was > 100 µM (inactive) and the GI50 [15] was > 100 µM (inactive). For the same compound, the GI50 [16] was > 100 µM (inactive), the GI50 [17] was > 100 µM (inactive) and the GI50 [45] was > 100 µM (inactive). The GI50 [18] was > 100 µM (inactive), the GI50 [46] was > 100 µM (inactive) and the GI50 [19] was > 100 µM (inactive). The GI50 [20] was > 100 µM (inactive), the GI50 [47] was > 100 µM (inactive) and the GI50 [48] was > 100 µM (inactive). For the same compound, the GI50 [21] was > 100 µM (inactive), the GI50 [22] was > 100 µM (inactive) and the GI50 [49] was > 100 µM (inactive). The GI50 [50] was > 100 µM (inactive), the GI50 [23] was 83.2 µM (inactive) and the GI50 [51] was greater than 100 µM. For the same compound, the GI50 [24] was > 100 µM (inactive), the GI50 [25] was > 100 µM (inactive) and the GI50 [26] was > 100 µM (inactive). For the same compound, the GI50 [27] was > 100 µM (inactive), the GI50 [52] was > 100 µM (inactive) and the GI50 [29] was > 100 µM (inactive). For the same compound, the GI50 [30] was > 100 µM (inactive), the GI50 [31] was > 100 µM (inactive) and the GI50 [32] was > 100 µM (inactive). The GI50 [53] was > 100 µM (inactive), the GI50 [33] was > 100 µM (inactive) and the GI50 [34] was > 100 µM (inactive). The GI50 [35] was > 100 µM (inactive), the GI50 [36] was > 100 µM (inactive) and the GI50 [37] was > 100 µM (inactive). The GI50 [38] was > 100 µM (inactive), the GI50 [39] was > 100 µM (inactive) and the GI50 [54] was > 100 µM (inactive). For the same compound, the GI50 [55] was > 100 µM (inactive), the GI50 [40] was > 100 µM (inactive) and the GI50 [41] was > 100 µM (inactive). The GI50 [42] was > 100 µM (inactive).

COc1cc(Nc2nc3ccccc3n3cccc23)cc(OC)c1OC was tested, and the GI50 [1] was > 100 µM (inactive), the GI50 [2] was > 100 µM (inactive) and the GI50 [4] was > 100 µM (inactive). For the same compound, the GI50 [43] was > 100 µM (inactive), the GI50 [5] was > 100 µM (inactive) and the GI50 [6] was 63.5 µM (inactive). The GI50 [7] was > 100 µM (inactive), the GI50 [8] was > 100 µM (inactive) and the GI50 [9] was > 100 µM (inactive). For the same compound, the GI50 [44] was > 100 µM (inactive), the GI50 [10] was 0.276 µM (active) and the GI50 [11] was > 100 µM (inactive). The GI50 [12] was > 100 µM (inactive), the GI50 [13] was > 100 µM (inactive) and the GI50 [14] was > 100 µM (inactive). For the same compound, the GI50 [15] was 28.5 µM (inactive), the GI50 [16] was 68.9 µM (inactive) and the GI50 [17] was > 100 µM (inactive). For the same compound, the GI50 [45] was 36.3 µM (inactive), the GI50 [18] was > 100 µM (inactive) and the GI50 [46] was > 100 µM (inactive). For the same compound, the GI50 [19] was 98.2 µM (inactive), the GI50 [56] was 52.5 µM (inactive) and the GI50 [20] was > 100 µM (inactive). The GI50 [47] was 19.1 µM (inactive), the GI50 [48] was > 100 µM (inactive) and the GI50 [21] was > 100 µM (inactive). For the same compound, the GI50 [57] was > 100 µM (inactive), the GI50 [49] was > 100 µM (inactive) and the GI50 [51] was greater than 100 µM. The GI50 [24] was 17.5 µM (inactive), the GI50 [25] was > 100 µM (inactive) and the GI50 [26] was > 100 µM (inactive). The GI50 [27] was > 100 µM (inactive), the GI50 [28] was 27.1 µM (inactive) and the GI50 [52] was > 100 µM (inactive). For the same compound, the GI50 [29] was 94.8 µM (inactive), the GI50 [30] was > 100 µM (inactive) and the GI50 [31] was 37.3 µM (inactive). For the same compound, the GI50 [32] was 20.3 µM (inactive), the GI50 [53] was > 100 µM (inactive) and the GI50 [33] was 47.8 µM (inactive). For the same compound, the GI50 [35] was > 100 µM (inactive), the GI50 [36] was > 100 µM (inactive) and the GI50 [37] was 73.8 µM (inactive). For the same compound, the GI50 [38] was 54.7 µM (inactive), the GI50 [58] was > 100 µM (inactive) and the GI50 [39] was 44.2 µM (inactive). For the same compound, the GI50 [54] was 47.8 µM (inactive), the GI50 [55] was > 100 µM (inactive) and the GI50 [40] was > 100 µM (inactive). The GI50 [41] was > 100 µM (inactive), the GI50 [42] was > 100 µM (inactive) and the GI50 [59] was 64.4 µM (inactive).

For Cc1ccc(C2(c3ccc(C)cc3)SC(=C(C#N)C#N)c3ccccc32)cc1, the GI50 [1] was 53 µM (inactive), the GI50 [4] was > 100 µM (inactive) and the GI50 [43] was 7.67 µM (inactive). For the same compound, the GI50 [6] was 97.9 µM (inactive), the GI50 [8] was 5.31 µM (inactive) and the GI50 [44] was > 100 µM (inactive). For the same compound, the GI50 [10] was > 100 µM (inactive), the GI50 [11] was > 100 µM (inactive) and the GI50 [12] was 55.6 µM (inactive). For the same compound, the GI50 [13] was 6.75 µM (inactive), the GI50 [14] was > 100 µM (inactive) and the GI50 [15] was > 100 µM (inactive). The GI50 [16] was > 100 µM (inactive), the GI50 [17] was 83.9 µM (inactive) and the GI50 [45] was > 100 µM (inactive). For the same compound, the GI50 [18] was 89.7 µM (inactive), the GI50 [46] was 23 µM (inactive) and the GI50 [19] was > 100 µM (inactive). For the same compound, the GI50 [56] was 2.9 µM (inactive), the GI50 [20] was > 100 µM (inactive) and the GI50 [47] was 31.4 µM (inactive). For the same compound, the GI50 [48] was 81.1 µM (inactive), the GI50 [21] was 21.1 µM (inactive) and the GI50 [22] was > 100 µM (inactive). The GI50 [50] was > 100 µM (inactive), the GI50 [51] was 22.5 µM and the GI50 [24] was > 100 µM (inactive). The GI50 [25] was 13.2 µM (inactive), the GI50 [26] was > 100 µM (inactive) and the GI50 [27] was 87.9 µM (inactive). The GI50 [28] was > 100 µM (inactive), the GI50 [52] was 58.3 µM (inactive) and the GI50 [29] was > 100 µM (inactive). For the same compound, the GI50 [30] was > 100 µM (inactive), the GI50 [31] was > 100 µM (inactive) and the GI50 [32] was > 100 µM (inactive). The GI50 [53] was > 100 µM (inactive), the GI50 [33] was 18.1 µM (inactive) and the GI50 [35] was > 100 µM (inactive). The GI50 [36] was 45.6 µM (inactive), the GI50 [37] was > 100 µM (inactive) and the GI50 [38] was > 100 µM (inactive). For the same compound, the GI50 [58] was > 100 µM (inactive), the GI50 [39] was > 100 µM (inactive) and the GI50 [54] was 26.3 µM (inactive). For the same compound, the GI50 [55] was > 100 µM (inactive), the GI50 [40] was 27.6 µM (inactive) and the GI50 [41] was > 100 µM (inactive). The GI50 [42] was > 100 µM (inactive) and the GI50 [59] was > 100 µM (inactive).
